Measured values taken from ChEMBL document CHEMBL1649307, “Development, validation, and routine application of a high-performance liquid chromatography method coupled with a single mass detector for quantification of itraconazole, voriconazole, and posaconazole in human plasma” (Antimicrob Agents Chemother, 2010).

What was measured:
Assay type in all cases: ADME, organism-based
Settings in all cases: in vivo
Plasma [1] = test: Metabolic stability in healthy human plasma assessed as compound recovery at 3 mg/kg QD; design: dose 3 mg/kg
Plasma [2] = test: Metabolic stability in healthy human plasma assessed as compound recovery at 6 mg/kg BID; design: dose 6 mg/kg
Plasma [3] = test: Metabolic stability in healthy human plasma assessed as compound recovery at 7 mg/kg BID; design: dose 7 mg/kg

CCC(C)n1ncn(-c2ccc(N3CCN(c4ccc(OCC5COC(Cn6cncn6)(c6ccc(Cl)cc6Cl)O5)cc4)CC3)cc2)c1=O (stereo not drawn) [ITRACONAZOLE]
Stability (Plasma [1]): 114.5%

CC[C@@H]([C@H](C)O)n1ncn(-c2ccc(N3CCN(c4ccc(OC[C@@H]5CO[C@@](Cn6cncn6)(c6ccc(F)cc6F)C5)cc4)CC3)cc2)c1=O [POSACONAZOLE]
Stability (Plasma [2]): 85.5%

C[C@@H](c1ncncc1F)[C@](O)(Cn1cncn1)c1ccc(F)cc1F [VORICONAZOLE]
Stability (Plasma [3]): 97.2%
